The source of these data is PubChem BioAssay (NCI).

Some test systems named below: ACHN renal; COLO 205 colon; DU-145 prostate; HOP-62 NSCLC; MDA-MB-231 breast; MDA-MB-435; NCI/ADR-RES ovarian; OVCAR-4 ovarian; OVCAR-5 ovarian; RPMI-8226 leukemia; SF-268 CNS; SF-539 CNS; SNB-19 CNS.
Assay in all cases: NCI-60 cell line screen, 48 h

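Exposure lasted 48 hours, with cells grown in 96-well plates and compounds tested at five concentrations. TGI denotes the concentration required for complete inhibition of growth.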

For the molecule `CC(C)(C)OC(=O)NC1CCCCC1NC(=O)C(=O)NC1CCCCC1NC(=O)OC(C)(C)C` (stereo not drawn), the TGI is above 100 µM in the test with ACHN renal; above 100 µM in the test on COLO 205 colon; above 100 µM in the test with DU-145 prostate; 80.6 µM with HOP-62 NSCLC; above 100 µM in the test with MDA-MB-231 breast; above 100 µM in the test on MDA-MB-435. In addition, the TGI in the test with NCI/ADR-RES ovarian, in the test with OVCAR-4 ovarian, in the test on OVCAR-5 ovarian, in the test on RPMI-8226 leukemia, in the test on SF-268 CNS and with SF-539 CNS was above 100 µM each time. This molecule had a TGI in the test on SNB-19 CNS above 100 µM.
Turning to `O=S(=O)(O)CCCc1cccc2ccccc12`, the TGI in the test on ACHN renal, with COLO 205 colon, in the test with DU-145 prostate, in the test on HOP-62 NSCLC, in the test with MDA-MB-231 breast and in the test with MDA-MB-435 was above 100 µM each time. The TGI in the test on NCI/ADR-RES ovarian, with OVCAR-4 ovarian, with OVCAR-5 ovarian, in the test on RPMI-8226 leukemia, in the test with SF-268 CNS and in the test with SF-539 CNS was above 100 µM throughout. The molecule further displayed a TGI with SNB-19 CNS above 100 µM.
Consider `C[C@H]1[C@H]2[C@H]3CC[C@@H]4[C@@]5(C)CC[C@H](O)C(C)(C)[C@@H]5CC[C@@]4(C)[C@]3(C)C[C@H](O)[C@@]2(C)C[C@H]2O[C@]21C`, for which the TGI is 31.1 µM in the test with ACHN renal; 58.7 µM in the test with COLO 205 colon; 31.5 µM in the test on DU-145 prostate; 57.7 µM with HOP-62 NSCLC; 36.9 µM with MDA-MB-231 breast; 46 µM in the test with MDA-MB-435. Moreover, the TGI in the test on NCI/ADR-RES ovarian was 51.8 µM; with OVCAR-4 ovarian it was above 100 µM; in the test with OVCAR-5 ovarian, 58.4 µM; in the test on RPMI-8226 leukemia, above 100 µM; with SF-268 CNS, 36.7 µM; with SF-539 CNS, 39 µM. Also, the TGI in the test on SNB-19 CNS was 49.7 µM.
With `COc1cc(OC)cc(Oc2nc3ccccc3nc2C(F)(F)F)c1`, the TGI with ACHN renal was above 100 µM; in the test with COLO 205 colon, above 100 µM; with DU-145 prostate, above 100 µM; with HOP-62 NSCLC, above 100 µM; with MDA-MB-231 breast, 94.9 µM; in the test with MDA-MB-435, above 100 µM. Further, the TGI in the test with NCI/ADR-RES ovarian, with OVCAR-4 ovarian, with OVCAR-5 ovarian, in the test with RPMI-8226 leukemia, with SF-268 CNS and with SF-539 CNS was above 100 µM each time. This molecule displayed a TGI with SNB-19 CNS above 100 µM.
With `CC1=C(C)CC2C(=O)N(c3cc(C(C)(C)C)ccc3C(C)(C)C)C(=O)C2C1` (stereo not drawn), the TGI in the test on ACHN renal was 23.2 µM; with COLO 205 colon, above 100 µM; in the test on DU-145 prostate it was above 100 µM; with HOP-62 NSCLC, 82.3 µM; in the test with MDA-MB-231 breast it was above 100 µM; in the test on MDA-MB-435, above 100 µM. Further, the TGI was above 100 µM in the test on NCI/ADR-RES ovarian; above 100 µM in the test with OVCAR-4 ovarian; above 100 µM with OVCAR-5 ovarian; above 100 µM with RPMI-8226 leukemia; 24.6 µM in the test on SF-268 CNS; above 100 µM in the test on SF-539 CNS. This molecule also displayed a TGI in the test on SNB-19 CNS above 100 µM.
Consider `O=C(/C=C/c1ccccc1)Oc1cccc(O)c1`, for which the TGI with ACHN renal, in the test with COLO 205 colon, in the test on DU-145 prostate, with HOP-62 NSCLC, with MDA-MB-231 breast and in the test on MDA-MB-435 was above 100 µM each time. The TGI was above 100 µM in the test on NCI/ADR-RES ovarian; above 100 µM in the test on OVCAR-4 ovarian; above 100 µM in the test on OVCAR-5 ovarian; above 100 µM in the test with RPMI-8226 leukemia; 62.6 µM with SF-268 CNS; above 100 µM in the test on SF-539 CNS. In the test with SNB-19 CNS, this molecule returned a TGI of 76.1 µM.
Consider `COc1cccc(C2c3cc4c(cc3OC(N3CCCCC3)C2C)OCO4)c1O` (stereo not drawn), for which the TGI in the test with ACHN renal is 56.5 µM; in the test with COLO 205 colon it was 25.5 µM; in the test on DU-145 prostate it was 96.9 µM; in the test on HOP-62 NSCLC, 13.7 µM; with MDA-MB-231 breast, above 56.7 µM; in the test on MDA-MB-435, 6.82 µM. Further, the TGI in the test on NCI/ADR-RES ovarian was above 100 µM; with OVCAR-4 ovarian it was above 100 µM; in the test on OVCAR-5 ovarian, 57.7 µM; in the test with RPMI-8226 leukemia, 12.3 µM; in the test on SF-268 CNS, 99.8 µM; in the test with SF-539 CNS it was 5.82 µM. The TGI with SNB-19 CNS is above 100 µM.
For the molecule `Cc1ccc(S(=O)(=O)c2[nH]cc(/C(=C\C3CCCCC3)[N+](=O)[O-])c2C2CCCCC2)cc1`, the TGI was 0.619 µM in the test on ACHN renal; 0.602 µM in the test on COLO 205 colon; 1.49 µM in the test with DU-145 prostate; 3.71 µM with HOP-62 NSCLC; 0.515 µM with MDA-MB-231 breast; above 100 µM in the test on MDA-MB-435. The TGI with NCI/ADR-RES ovarian came out at 19.9 µM; in the test with OVCAR-4 ovarian, 1.28 µM; with OVCAR-5 ovarian, 3.71 µM; in the test with RPMI-8226 leukemia, 0.715 µM; with SF-268 CNS it was 1.84 µM; in the test on SF-539 CNS, 2.46 µM. The same molecule had a TGI in the test on SNB-19 CNS of 3.98 µM.
As for `Cc1n(Cc2ccccc2)c2c([n+]1C)C(=O)c1ccccc1C2=O`, the TGI with ACHN renal was 11.4 µM; with COLO 205 colon, 0.0794 µM; with DU-145 prostate, 0.32 µM; in the test with HOP-62 NSCLC it was 0.775 µM; with MDA-MB-231 breast it was 0.299 µM; in the test with MDA-MB-435, 0.33 µM. Besides, the TGI is above 100 µM with NCI/ADR-RES ovarian; 0.812 µM in the test with OVCAR-4 ovarian; 0.503 µM in the test on OVCAR-5 ovarian; 39.1 µM with RPMI-8226 leukemia; 0.143 µM in the test with SF-268 CNS; 0.179 µM with SF-539 CNS. In the test with SNB-19 CNS, this molecule came in with a TGI of 0.0916 µM.
As to `COC[C@@H](N=CC(C)(C)C)C(C)C`, the TGI in the test on ACHN renal, with COLO 205 colon, in the test on DU-145 prostate, in the test on HOP-62 NSCLC, in the test with MDA-MB-231 breast and in the test with MDA-MB-435 was above 100 µM throughout. In addition, the TGI in the test on NCI/ADR-RES ovarian, in the test on OVCAR-4 ovarian, in the test on OVCAR-5 ovarian, in the test with RPMI-8226 leukemia, with SF-268 CNS and in the test on SF-539 CNS was above 100 µM each time. The same molecule came in with a TGI with SNB-19 CNS above 100 µM.
With `Cc1ccc(-n2cnc(C(=N)C#N)c2N)cc1`, the TGI in the test on ACHN renal, in the test with COLO 205 colon, with DU-145 prostate, in the test on HOP-62 NSCLC, in the test with MDA-MB-231 breast and with MDA-MB-435 was above 100 µM throughout. Besides, the TGI in the test on NCI/ADR-RES ovarian, with OVCAR-4 ovarian, in the test with OVCAR-5 ovarian, in the test on RPMI-8226 leukemia, with SF-268 CNS and in the test with SF-539 CNS was above 100 µM in each case. This molecule also returned a TGI in the test with SNB-19 CNS above 100 µM.
